# Source: patent US20150031102A1, “METHODS AND COMPOSITIONS FOR ENHANCED PRODUCTION OF BUTANOL BY CLOSTRIDIA” (Butrolix LLC, priority 2012, published 2015)
# System: Clostridium acetobutylicum strain ATCC 824
# Assay: Sequential batch transfer in 24-well culture plates (butanol, residual glucose, butanol yield and productivity)
# Assay type: cell-based
# Settings: after 96 hours of culture; for Residual glucose concentration: initial glucose 60 g/L; for Butanol: Experiment 1
# Protocol: Each well contained 1.5 mL of growth medium. Peptide was added to each well at the indicated concentration (0, 25, 50, and 100 nM). Every 24 hours fresh medium and peptide treatment were added to a new column of wells then 1.5 μL of the previous day culture was transferred to the new well. Wells were harvested for glucose and butanol analysis after 96 hours of growth. Transfers 1, 4, 7, 10, 13, 16, […].
# Briefly, Clostridium spores were germinated in a suitable growth medium for 18-24 hours then […] was transferred to 1.5 mL of fresh medium in each of four wells on a 24-well culture plate. Three of the wells had been treated with 25 nM, 50 nM and 100 nM of peptide, respectively while the fourth well was untreated. Thereafter, every 24 hours […] of each subculture was transferred to 1.5 mL of fresh medium that contained the same peptide treatment or no treatment. Transfers of successive subcultures were done for 24 days, and each subculture was grown for 96 hours before being harvested. Culture supernatants were recovered following centrifugation and were analyzed for butanol and residual glucose concentrations. Determination of optimum peptide treatment levels was based on a graphical comparison of the concentration of butanol in each of the four culture wells for sequential transfers 1, 4, 7, 10, 13, 16, 19, 22 and 24.
# Clostridium acetobutylicum strain ATCC 824 was used in all experiments and the growth medium used for sequential batch transfer, time course, and continuous culture experiments contained yeast extract, casamino acids, L-cysteine, L-asparagine, phosphate buffer, trace minerals, and 6% glucose. What are believed to be quorum-sensing peptides that were used in the experiments were chemically synthesized peptides SEQ ID NO: 143 (amino acid sequence: SYPGWSW) and SEQ ID NO: 144 (amino acid sequence: ILILISG). Routine growth of the bacteria as well as the sequential batch and time course experiments were conducted in a Form a Scientific Model 1029 anaerobic gas chamber at 32° C. Continuous cultures were performed at 32° C. using duplicate New Brunswick Scientific BioFlo 3000 apparati with a dilution rate of 0.01 volume per hour, 75 rpm agitation, and nitrogen gas sparging. Optical density of culture samples was measured at 600 nm in a Beckman DU 600 series spectrophotometer and glucose was analyzed using a YSI Model 2700 Select Biochemistry Analyzer with internal glucose calibration. Butanol concentrations were determined by measuring experimental and standard samples using a Varian Saturn 3 Gas Chromatograph/Mass Spectrometer and calculating butanol concentrations using standard curves.
# (§1) Sequential batch transfer experiments were carried out in 24-well culture plates that contained 1.5 mL of medium per well. Peptide was added to each well at the indicated concentrations of 0 nM (control), 25 nM, 50 nM, or 100 nM. Every 24 hours, fresh medium and peptide treatments were added to a new column of wells. Then, 1.5 uL of the previous day culture was transferred to the new well. Wells were harvested for glucose and butanol analysis after 96 hours of growth; transfers 1, 4, 7, 10, 13, 16, 19, 22, and 24 were analyzed. Two representative experiments are shown in Tables 30 and 31 and FIGS. 14 and 15.
# as §1, with “32” for “30”, “33” for “31”, “16” for “14”, “17.” for “15.”
# [1] = 25 nM peptide, transfer 1, Expt. 2 (repeat)
# [2] = 25 nM peptide, transfer 4, Expt. 2 (repeat)
# [3] = 25 nM peptide, transfer 7, Expt. 2 (repeat)
# [4] = 25 nM peptide, transfer 10, Expt. 2 (repeat)
# [5] = 25 nM peptide, transfer 13, Expt. 2 (repeat)
# [6] = 25 nM peptide, transfer 16, Expt. 2 (repeat)
# [7] = 25 nM peptide, transfer 19, Expt. 2 (repeat)
# [8] = 25 nM peptide, transfer 22, Expt. 2 (repeat)
# [9] = 25 nM peptide, transfer 24, Expt. 2 (repeat)
# [10] = 25 nM, transfer 1, first experiment
# [11] = 25 nM, transfer 4, first experiment
# [12] = 25 nM, transfer 7, first experiment
# [13] = 25 nM, transfer 10, first experiment
# [14] = 25 nM, transfer 13, first experiment
# [15] = 25 nM, transfer 16, first experiment
# [16] = 25 nM, transfer 19, first experiment
# [17] = 25 nM, transfer 22, first experiment
# [18] = 25 nM, transfer 24, first experiment
# [19] = 50 nM peptide, transfer 1, Expt. 2 (repeat)
# [20] = 50 nM peptide, transfer 4, Expt. 2 (repeat)
# [21] = 50 nM peptide, transfer 7, Expt. 2 (repeat)
# [22] = 50 nM peptide, transfer 10, Expt. 2 (repeat)
# [23] = 50 nM peptide, transfer 13, Expt. 2 (repeat)
# [24] = 50 nM peptide, transfer 16, Expt. 2 (repeat)
# [25] = 50 nM peptide, transfer 19, Expt. 2 (repeat)
# [26] = 50 nM peptide, transfer 22, Expt. 2 (repeat)
# [27] = 50 nM peptide, transfer 24, Expt. 2 (repeat)
# [28] = 50 nM, transfer 1, first experiment
# [29] = 50 nM, transfer 4, first experiment
# [30] = 50 nM, transfer 7, first experiment
substance,measurement,setting,value
SYPGWSW [peptide SEQ ID NO: 143],Butanol concentration,[1],0.75 g/L
same,Butanol productivity,[1],0.01 g butanol/L-h
same,Butanol yield,[1],0.01 g butanol/g/glucose
same,Residual glucose concentration,[1],49.0 g/L
same,Butanol concentration,[2],1.40 g/L
same,Butanol productivity,[2],0.01 g butanol/L-h
same,Butanol yield,[2],0.02 g butanol/g/glucose
same,Residual glucose concentration,[2],43.5 g/L
same,Butanol concentration,[3],1.83 g/L
same,Butanol productivity,[3],0.02 g butanol/L-h
same,Butanol yield,[3],0.03 g butanol/g/glucose
same,Residual glucose concentration,[3],48.9 g/L
same,Butanol concentration,[4],2.93 g/L
same,Butanol productivity,[4],0.03 g butanol/L-h
same,Butanol yield,[4],0.05 g butanol/g/glucose
same,Residual glucose concentration,[4],43.9 g/L
same,Butanol concentration,[5],2.89 g/L
same,Butanol productivity,[5],0.03 g butanol/L-h
same,Butanol yield,[5],0.05 g butanol/g/glucose
same,Residual glucose concentration,[5],44.7 g/L
same,Butanol concentration,[6],6.32 g/L
same,Butanol productivity,[6],0.07 g butanol/L-h
same,Butanol yield,[6],0.11 g butanol/g/glucose
same,Residual glucose concentration,[6],39.1 g/L
same,Butanol concentration,[7],2.65 g/L
same,Butanol productivity,[7],0.03 g butanol/L-h
same,Butanol yield,[7],0.05 g butanol/g/glucose
same,Residual glucose concentration,[7],44.1 g/L
same,Butanol concentration,[8],6.86 g/L
same,Butanol productivity,[8],0.07 g butanol/L-h
same,Butanol yield,[8],0.12 g butanol/g/glucose
same,Residual glucose concentration,[8],0.1 g/L
same,Butanol concentration,[9],5.33 g/L
same,Butanol productivity,[9],0.06 g butanol/L-h
same,Butanol yield,[9],0.09 g butanol/g/glucose
same,Residual glucose concentration,[9],16.0 g/L
same,Butanol,"25 nM, transfer 1",1.21 g/L
same,Butanol productivity,[10],0.01 g butanol/L-h
same,Butanol yield,[10],0.02 g butanol/g/glucose
same,Residual glucose concentration,[10],45.3 g/L
same,Butanol,"25 nM, transfer 4",11.87 g/L
same,Butanol productivity,[11],0.12 g butanol/L-h
same,Butanol yield,[11],0.20 g butanol/g/glucose
same,Residual glucose concentration,[11],0.1 g/L
same,Butanol,"25 nM, transfer 7",9.09 g/L
same,Butanol productivity,[12],0.09 g butanol/L-h
same,Butanol yield,[12],0.15 g butanol/g/glucose
same,Residual glucose concentration,[12],0.1 g/L
same,Butanol,"25 nM, transfer 10",12.83 g/L
same,Butanol productivity,[13],0.13 g butanol/L-h
same,Butanol yield,[13],0.22 g butanol/g/glucose
same,Residual glucose concentration,[13],0.1 g/L
same,Butanol,"25 nM, transfer 13",9.97 g/L
same,Butanol productivity,[14],0.10 g butanol/L-h
same,Butanol yield,[14],0.17 g butanol/g/glucose
same,Residual glucose concentration,[14],0.1 g/L
same,Butanol,"25 nM, transfer 16",11.66 g/L
same,Butanol productivity,[15],0.12 g butanol/L-h
same,Butanol yield,[15],0.20 g butanol/g/glucose
same,Residual glucose concentration,[15],0.1 g/L
same,Butanol,"25 nM, transfer 19",4.37 g/L
same,Butanol productivity,[16],0.05 g butanol/L-h
same,Butanol yield,[16],0.07 g butanol/g/glucose
same,Residual glucose concentration,[16],48.1 g/L
same,Butanol,"25 nM, transfer 22",7.12 g/L
same,Butanol productivity,[17],0.07 g butanol/L-h
same,Butanol yield,[17],0.12 g butanol/g/glucose
same,Residual glucose concentration,[17],45.7 g/L
same,Butanol,"25 nM, transfer 24",5.06 g/L
same,Butanol productivity,[18],0.05 g butanol/L-h
same,Butanol yield,[18],0.08 g butanol/g/glucose
same,Residual glucose concentration,[18],48.5 g/L
same,Butanol concentration,[19],0.72 g/L
same,Butanol productivity,[19],0.01 g butanol/L-h
same,Butanol yield,[19],0.01 g butanol/g/glucose
same,Residual glucose concentration,[19],48.9 g/L
same,Butanol concentration,[20],1.41 g/L
same,Butanol productivity,[20],0.01 g butanol/L-h
same,Butanol yield,[20],0.02 g butanol/g/glucose
same,Residual glucose concentration,[20],43.2 g/L
same,Butanol concentration,[21],3.09 g/L
same,Butanol productivity,[21],0.03 g butanol/L-h
same,Butanol yield,[21],0.05 g butanol/g/glucose
same,Residual glucose concentration,[21],41.3 g/L
same,Butanol concentration,[22],7.69 g/L
same,Butanol productivity,[22],0.08 g butanol/L-h
same,Butanol yield,[22],0.13 g butanol/g/glucose
same,Residual glucose concentration,[22],0.5 g/L
same,Butanol concentration,[23],8.72 g/L
same,Butanol productivity,[23],0.09 g butanol/L-h
same,Butanol yield,[23],0.15 g butanol/g/glucose
same,Residual glucose concentration,[23],0.1 g/L
same,Butanol concentration,[24],10.70 g/L
same,Butanol productivity,[24],0.11 g butanol/L-h
same,Butanol yield,[24],0.18 g butanol/g/glucose
same,Residual glucose concentration,[24],0.1 g/L
same,Butanol concentration,[25],5.75 g/L
same,Butanol productivity,[25],0.06 g butanol/L-h
same,Butanol yield,[25],0.10 g butanol/g/glucose
same,Residual glucose concentration,[25],0.1 g/L
same,Butanol concentration,[26],4.54 g/L
same,Butanol productivity,[26],0.05 g butanol/L-h
same,Butanol yield,[26],0.08 g butanol/g/glucose
same,Residual glucose concentration,[26],0.1 g/L
same,Butanol concentration,[27],4.78 g/L
same,Butanol productivity,[27],0.05 g butanol/L-h
same,Butanol yield,[27],0.08 g butanol/g/glucose
same,Residual glucose concentration,[27],0.1 g/L
same,Butanol,"50 nM, transfer 1",1.12 g/L
same,Butanol productivity,[28],0.01 g butanol/L-h
same,Butanol yield,[28],0.02 g butanol/g/glucose
same,Residual glucose concentration,[28],45.5 g/L
same,Butanol,"50 nM, transfer 4",11.53 g/L
same,Butanol productivity,[29],0.12 g butanol/L-h
same,Butanol yield,[29],0.19 g butanol/g/glucose
same,Residual glucose concentration,[29],0.1 g/L
same,Butanol,"50 nM, transfer 7",9.36 g/L
same,Butanol productivity,[30],0.10 g butanol/L-h
same,Butanol yield,[30],0.16 g butanol/g/glucose
same,Residual glucose concentration,[30],0.1 g/L
same,Butanol,"50 nM, transfer 10",13.66 g/L
